From paper PMC7503713, “GANT61 Reduces Hedgehog Molecule (GLI1) Expression and Promotes Apoptosis in Metastatic Oral Squamous Cell Carcinoma Cells” (International Journal of Molecular Sciences, 2020)

Key:
Type in all cases: cell-based, human
[1] = test system: AGP01; assay: alamarBlue cytotoxicity assay, AGP01; details: Homo sapiens, 72 h of incubation
Method: (§1) To assess the cytotoxicity of the GLI inhibitor GANT61 (Sigma-Aldrich, St. Louis, MO, USA) in tumor and non-tumor cell lines, an alamarBlue assay (Sigma-Aldrich Chemical Co, St. Louis, MO, USA) was performed after 72 h of exposure to the inhibitor, as described by Ahmed et al., 1994 [46]. Cells were distributed on 96-well plates at a density of 7 × 10^4 cells/mL for adhered cells, and 3 × 10^5 cells/mL for cells in suspension. All tested compounds were dissolved in DMSO, added to wells containing 100 µL of cells in complete medium, and then incubated for 72 h. Eight concentrations of GANT61 (0.19 to 50 µg/mL), Doxorubicin (Laboratory IMA S.A.I.C., Buenos Aires, Argentina), and 5-Fluorouracil (5-FU, Sigma-Aldrich, St. Louis, MO, USA), both used as positive controls at concentrations ranging from 0.03 to 5 µg/mL, were added to respective wells. […] Absorbance was measured at 570 nm (reduced) and 595 nm (oxidized) wavelengths, using a Spectramax 190 plate reader (Molecular Devices; Sunnyvale, CA, USA).
(§2) Statistical analyses were performed, using GraphPad Prism v. […] Data were analyzed according to distribution along the normal Gaussian curve. […] Differences between groups resulting from in vitro assays were evaluated by ANOVA (analysis of variance) testing, followed by the Student–Newman–Keuls test. […]

[2] = test system: HaCat; assay: alamarBlue cytotoxicity assay, HaCat; details: Homo sapiens, 72 h of incubation
Method: as §1, §2

[3] = test system: CAL27; assay: alamarBlue cytotoxicity assay, CAL27; details: Homo sapiens, CAL-27, 72 h of incubation
Method: (§3) To assess the cytotoxicity of the GLI inhibitor GANT61 (Sigma-Aldrich, St. Louis, MO, USA) in tumor and non-tumor cell lines, an alamarBlue assay (Sigma-Aldrich Chemical Co, St. Louis, MO, USA) was performed after 72 h of exposure to the inhibitor, as described by Ahmed et al., 1994 [46]. Cells were distributed on 96-well plates at a density of 7 × 10^4 cells/mL for adhered cells, and 3 × 10^5 cells/mL for cells in suspension. All tested compounds were dissolved in DMSO, added to wells containing 100 µL of cells in complete medium, and then incubated for 72 h. Eight concentrations of GANT61 (0.19 to 50 µg/mL), Doxorubicin (Laboratory IMA S.A.I.C., Buenos Aires, Argentina), and 5-Fluorouracil (5-FU, Sigma-Aldrich, St. Louis, MO, USA), both used as positive controls at concentrations ranging from 0.03 to 5 µg/mL, were added to respective wells. Cells treated with the vehicle (0.5% DMSO) used to dilute the tested compounds were used as negative controls. Before the end of the incubation period (4 h for cell lines and 24 h for PBMCs), 20 µL of alamarBlue stock solution (resazurin, Sigma-Aldrich, St. Louis, MO, USA) was added to each well. Absorbance was measured at 570 nm (reduced) and 595 nm (oxidized) wavelengths, using a Spectramax 190 plate reader (Molecular Devices; Sunnyvale, CA, USA).
(§4) Statistical analyses were performed, using GraphPad Prism v. 6.03 (GraphPad Software, Inc., San Diego, USA). Data were analyzed according to distribution along the normal Gaussian curve. IC50 values were obtained through non-linear regression, using results from three independent experiments carried out in duplicate. Differences between groups resulting from in vitro assays were evaluated by ANOVA (analysis of variance) testing, followed by the Student–Newman–Keuls test. This study considered a level of significance, corresponding to alpha (α) or “p” value, when results were less than or equal to 5%.

[4] = test system: SCC4; assay: alamarBlue cytotoxicity assay, SCC4; details: Homo sapiens, SCC-4, 72 h of incubation
Method: as §1, §2

[5] = test system: HL60; assay: alamarBlue cytotoxicity assay, HL60; details: Homo sapiens, HL-60, 72 h of incubation
Method: as §1, §2

[6] = test system: SCC25; assay: alamarBlue cytotoxicity assay, SCC25; details: Homo sapiens, SCC-25, 72 h of incubation
Method: as §1, §2

[7] = test system: APC02; assay: alamarBlue cytotoxicity assay, APC02; details: Homo sapiens, 72 h of incubation
Method: as §1, §2

[8] = test system: HSC3; assay: alamarBlue cytotoxicity assay, HSC3; details: Homo sapiens, HSC-3, 72 h of incubation
Method: For cytotoxicity assessments, this study primarily focused on the highly metastatic HSC3 OSCC cell line (JCRB Cell Bank, Osaka, Japan) and employed other histological tumor cell types and non-tumor cells (Supplementary Table S1). HSC3 cells were placed in flasks ([…], 250 mL volume) containing DMEM medium (Gibco, Lif Technologies, Gaithesburg, MD, USA) supplemented with 10% fetal bovine serum (FBS, Gibco, Life Technologies, Gaithesburg, MD, USA) 1% penicillin, 1% streptomycin (Gibco, Life Technologies, Gaithesburg, MD, USA), and 0.8% hydrocortisone (Sigma-Aldrich, St. Louis, MO, USA). Cells were cultured and kept in incubators, under an atmosphere of 5% CO2 at 37 °C. Trypsinization was used to dissociate cells when cell growth reached the necessary confluence, i.e., 70 to 80% of the total culture flask volume. Cell cultures were tested periodically for mycoplasma contamination and evaluated by using a luminometer, according to the MycoAlert^TM PLUS protocol (Lonza, Walkersville Inc., Walkersville, MD, USA, 2012).
as §3
Statistical analyses were performed, using GraphPad Prism v. 6.03 (GraphPad Software, Inc., San Diego, USA). Data were analyzed according to distribution along the normal Gaussian curve. […] Differences between groups resulting from in vitro assays were evaluated by ANOVA (analysis of variance) testing, followed by the Student–Newman–Keuls test. […]

[9] = test system: PBMC; assay: alamarBlue cytotoxicity assay, PBMC; details: Homo sapiens, 72 h of incubation
Method: Human peripheral blood mononuclear cells (PBMC) lymphocytes and monocytes) were obtained from the peripheral blood of healthy, non-smoking volunteers aged 25–35 years. None of the volunteers had used any type of drug or medication for at least 15 days prior to collection. Blood collection (5 mL) was performed in heparinized vials by trained professionals at the Laboratory of Tissue Engineering and Immunopharmacology (LETI, IGM-FIOCRUZ, Salvador, Brazil), using sterile disposable syringes. PBMCs were isolated by a standard protocol described by Dias et al. (2018). The institutional review board of the Gonçalo Moniz Institution, Oswaldo Cruz Foundation (IGM-FIOCRUZ), in Salvador, Bahia, Brazil, approved all experimental protocols (No.031019/2013). All participants provided written informed consent prior to participation in the study.
as §1, with “h.” for “h. Eight concentrations of GANT61 (0.19 to 50 µg/mL), Doxorubicin (Laboratory IMA S.A.I.C., Buenos Aires, Argentina), and 5-Fluorouracil (5-FU, Sigma-Aldrich, St. Louis, MO, USA), both used as positive controls at concentrations ranging from 0.03 to 5 µg/mL, were added to respective wells.”
as §2

[10] = test system: HT-29; assay: alamarBlue cytotoxicity assay, HT-29; details: Homo sapiens; HT-29, alamarBlue, 72 h of incubation
Method: as §1, §2

[11] = test system: K562; assay: alamarBlue cytotoxicity assay, K562; details: Homo sapiens, 72 h of incubation
Method: as §3, §4

[12] = test system: HepG2; assay: alamarBlue cytotoxicity assay, HepG2; details: Homo sapiens, 72 h of incubation
Method: as §3, §4

[13] = test system: HCT-116; assay: alamarBlue cytotoxicity assay, HCT-116; details: Homo sapiens; HCT-116, alamarBlue, 72 h of incubation
Method: as §3, §4

[14] = test system: APC03; assay: alamarBlue cytotoxicity assay, APC03; details: Homo sapiens, 72 h of incubation
Method: as §1, §2

[15] = test system: SCC9; assay: alamarBlue cytotoxicity assay, SCC9; details: Homo sapiens, SCC-9, 72 h of incubation
Method: as §3, §4

[16] = test system: SCC15; assay: alamarBlue cytotoxicity assay, SCC15; details: Homo sapiens, SCC-15, 72 h of incubation
Method: as §1, §2

COc1cccc2c1C(=O)c1c(O)c3c(c(O)c1C2=O)C[C@@](O)(C(=O)CO)C[C@@H]3O[C@H]1C[C@H](N)[C@H](O)[C@H](C)O1 [Doxorubicin]
IC50 [1]: 1890 nM | IC50 [2]: 100 nM | IC50 [3]: 3090 nM | IC50 [4]: 70 nM | IC50 [5]: 10 nM | IC50 [6]: 1400 nM | IC50 [7]: 6800 nM | IC50 [8]: 340 nM | IC50 [9]: 5200 nM | IC50 [10]: 300 nM | IC50 [11]: 50 nM | IC50 [12]: 10 nM | IC50 [13]: 200 nM | IC50 [14]: 2300 nM | IC50 [15]: 800 nM | IC50 [16]: 1500 nM
